Assay results: patent publication US20090076092A1, “METHOD FOR DISRUPTING REPRODUCTIVE PERFORMANCE OF ARTHROPODS” (priority 2006, published 2009)

Tests used:
[1] = tested on: cotton bollworm (Helicoverpa armigera Hübner); assay: Test H: eggs laid and hatched by treated cotton bollworm adults; format: in vivo; settings: for No. of eggs hatched / No. of eggs laid: total; for No. of eggs hatched: counted daily for 10 DAT; for No. of eggs laid: counted daily for about 10 days
Description: For evaluating the reproductive performance effects on cotton bollworm (Helicoverpa armigera Hübner), each test unit consisted of one pair of adult (female and male) Helicoverpa armigera moths. To obtain the adult moths, male and female pupae of approximately the same age (±1 day) were placed in separate containers until adults emerged. After emergence, adult moths of about the same age (±1 day) were selected for testing. Ten adult moths of the same sex were placed in a cage containing a potted cotton plant in a […] container covered with sleeve of fine-mesh polyester material. Then the cages were sprayed over the top with designated treatments of the test compounds using a CO2 sprayer fitted with a flat fan nozzle, calibrated to deliver about 200 mL (500 L/ha) of spray at a spray pressure of 207 kPa. The spray nozzle was placed 60 cm above the top of the cages.
Sub-lethal rates of Compound 1 on cotton bollworm were estimated based on a preliminary dose-response curve using rates of 10, 25, 50, 80 and 100 ppm. […] Three treatments consisted of test solutions containing Compound 1 at 10, 20 and 30 ppm as well as a control sprayed with water without test compound.
The treated adult moths were transferred individually into a clean container made of a clear plastic cup covered with cloth and supplied with a cotton wick soaked in 10% sucrose solution as adult diet source. Each treatment used 10 adult females and 10 adult males (i.e. 10 replicates per treatment). One day after treatment, a pair of treated adults (male and female) were placed together in a cage made of a 300 mL clear plastic cup with screened cloth cover and containing a source of adult diet, allowing the moths to copulate. Each pair of moths was transferred to a new cup daily. The number of eggs laid was counted daily for about 10 days (which is the period during which female moths typically produce viable eggs) and totaled. To evaluate the viability of eggs, the copulation cages containing eggs were stored in a growth chamber at 24-27° C. with 14 hours of light per day and 70% relative humidity.

[2] = tested on: green peach aphid (Myzus persicae Sulzer); assay: Test B: nymph production by green peach aphid after 24 hours exposure on treated radish plants; format: in vivo; settings: for Living (%) / On plant (%): 1 DAT; for Living (%): all aphids alive 24 h after treatment; for On plant (%): all aphids on the treated plant; for No. of nymphs (mean ± SE): per adult
Procedure: For evaluating reproductive performance effects on green peach aphid (Myzus persicae Sulzer), each test unit consisted of a radish plant grown in a 6 cm×6 cm square pot infested with a mixed population (nymphs and adults) of green peach aphids from a laboratory-reared culture. Each plant was infested with about 100 aphids. Test solutions were prepared and sprayed on the test plants (2 plants per treatment) as described for TEST A. Treatments included Compound 1 at 100 and 500 ppm, Compound 2 at 4 and 6 ppm, and a control without test compound.
Aphids were kept on the treated plants for 24 hours, and then only adult aphids staying on the treated plant were transferred to untreated radish plants grown singly in a 6 cm×6 cm square pots. One test unit or one replicate consisted of a single adult aphid on a radish plant in a pot. The number of nymphs in each replicate was counted 4 and 6 days after treatment. At the higher concentration of each test compound a total of 45 replicates were used, and at the lower concentration of each test compound a total of 30 replicates were used. In addition, prior to transferring aphids singly to the untreated radish plants one day after treatment (1 DAT), the total number of aphids living and those remaining on the treated plant were counted.
The results are listed in Table B. Square-root transformation was done on the number of nymphs produced per adult (female) aphid, and the data were analyzed using analysis of variance (ANOVA) and Fisher's Least Significant Difference (LSD) tests for separation of means.

For `CNC(=O)c1cc(Cl)cc(C)c1NC(=O)c1cc(Br)nn1-c1ncccc1Cl` [Compound 1, 3-bromo-N-[4-chloro-2-methyl-6-[(methylamino)carbonyl]phenyl]-1-(3-chloro-2-pyridinyl)-1H-pyrazole-5-carboxamide], the “number of eggs hatched as compared to controls” value ([1]; 10, 20 and 30 ppm) was “progressively substantially decrease the number of eggs hatched”, the “number of eggs laid as compared to controls” value ([1]; 10, 20 and 30 ppm) was “did not consistently reduce the number of eggs laid” and the “No. of eggs hatched” value ([1]; 10 ppm) was 977. For the same compound, the “No. of eggs laid” value ([1]; 10 ppm) was 3412, the “No. of eggs hatched” value ([1]; 20 ppm) was 778 and the “No. of eggs laid” value ([1]; 20 ppm) was 1180. For the same compound, the “No. of eggs hatched” value ([1]; 30 ppm) was 84, the “No. of eggs laid” value ([1]; 30 ppm) was 4920 and the “Living (%)” value ([2]; 100 ppm) was 99.9%. The “On plant (%)” value ([2]; 100 ppm) was 99.6%, the “No. of nymphs (mean ± SE)” value ([2]; 100 ppm, 4 DAT) was 3.5 ± 0.3 b and the “No. of nymphs (mean ± SE)” value ([2]; 100 ppm, 6 DAT) was 7.3 ± 0.4 a. For the same compound, the “Living (%)” value ([2]; 500 ppm) was 99.6%, the “On plant (%)” value ([2]; 500 ppm) was 99.9% and the “No. of nymphs (mean ± SE)” value ([2]; 500 ppm, 4 DAT) was 4.6 ± 0.3 a. The “No. of nymphs (mean ± SE)” value ([2]; 500 ppm, 6 DAT) was 8.1 ± 0.5 a.
